Measured values taken from US6737383B1, “Herbicidal oxadiazolidines” (priority 1999, dated 2004).

What was measured:
downy brome = assay: Test E downy brome; format: in vivo, Bromus tectorum; conditions: Preemergence
annual bluegrass = assay: Test E annual bluegrass; format: in vivo, Poa annua; conditions: Postemergence
Protocol: (§1) Compounds evaluated in this test were formulated in a non-phytotoxic solvent mixture which included a surfactant and applied to plants that were in the 1- to 4-leaf stage (postemergence application). A mixture of sandy loam soil and greenhouse potting mix in a 60:40 ratio was used for the postemergence test.
(§2) Plantings of these crops and weed species were adjusted to produce plants of appropriate size for the postemergence test. All plant species were grown using normal greenhouse practices. Crop and weed species include annual bluegrass (Poa annua), blackgrass (Alopecurus myosuroides), black nightshade (Solanum nigra), chickweed (Stellaria media), common poppy (Papaver rhoeas), deadnettle (Lamium amplexicaule), downy brome (Bromus tectorum), field violet (Viola arvensis), galium (Galium aparine), green foxtail (Setaria viridis), Italian ryegrass (Lolium multiflorum), jointed goatgrass (Aegilops cylindrica), kochia (Kochia scoparia), lambsquarters (Chenopodium album), littleseed canarygrass (Phalaris minor), rape (Brassica napus), redroot pigweed (Amaranthus retroflexus), Russian thistle (Salsola kali), scentless chamomile (Matricaria inodora), spring barley (Hordeum vulgare), sugar beet (Beta vulgaris), sunflower (Helianthus annuus), ivyleaf speedwell (Veronica hederaefolia), spring wheat (Triticum aestivum), winter wheat (Triticum aestivum), wild buckwheat (Polygonum convolvulus), wild mustard (Sinapis arvensis), wild oat (Avena fatua), windgrass (Apera spica-venti) and winter barley (Hordeum vulgare).
(§3) Treated plants and untreated controls were maintained in a greenhouse for approximately 21 to 28 days, after which all treated plants were compared to untreated controls and visually evaluated. […] A dash response (-) means no test result.

giant foxtail = assay: Test C postemergence giant foxtail; format: in vivo, Setaria faberii; conditions: 0 to 100 scale, 0 no effect, 100 complete control
How it was run: (§4)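 In this greenhouse assay, treated and untreated plants were kept for approximately 14 to 21 days following postemergence application, then rated by eye on a scale from 0 (no effect) to 100 (complete control).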

surinam grass = assay: Test C postemergence surinam grass; format: in vivo, Brachiaria decumbens; conditions: 0 to 100 scale, 0 no effect, 100 complete control
Protocol: (§5) Compounds evaluated in this test were formulated in a non-phytotoxic solvent mixture which included a surfactant and applied to plants that were grown for various periods of time before treatment (postemergence application). A mixture of sandy loam soil and greenhouse potting mix in a 60:40 ratio was used for the postemergence test.
(§6) Plantings of these crops and weed species were adjusted to produce plants of appropriate size for the postemergence test. All plant species were grown using normal greenhouse practices. Crop and weed species include arrowleaf sida (Sida rhombifolia), barnyardgrass (Echinochloa crus-galli), cocklebur (Xanthium strumarium), common ragweed (Ambrosia elatior), corn (Zea mays), cotton (Gossypium hirsutum), eastern black nightshade (Solanum ptycanthum), fall panicum (Panicum dichotomiflorum), field bindweed (Convolvulus arvensis), giant foxtail (Setaria faberii), hairy beggarticks (Bidens pilosa), ivyleaf morningglory (Ipomoea hederacea), johnsongrass (Sorghum halepense), ladysthumb smartweed (Polygonum persicaria), lambsquarters (Chenopodium album), large crabgrass (Digitaria sanguinalis), purple nutsedge (Cyperus rotundus), redroot pigweed (Amaranthus retroflexus), soybean (Glycine max), surinam grass (Brachiaria decumbens), velvetleaf (Abutilon theophrasti) and wild poinsettia (Euphorbia heterophylla).
(§7) Treated plants and untreated controls were maintained in a greenhouse for approximately 14, to 21 days, after which all treated plants were compared to untreated controls and visually evaluated. Plant response ratings, summarized in Table C, were based upon a 0 to 100 scale where 0 was no effect and 100 was complete control. A dash response (−) means no test result.

ivyleaf speedwell = assay: Test E postemergence ivyleaf speedwell; format: in vivo, Veronica hederaefolia
Protocol: as §1, §2, §3

eastern black nightshade = assay: Test C postemergence eastern black nightshade; format: in vivo, Solanum ptycanthum; conditions: 0 to 100 scale, 0 no effect, 100 complete control
How it was run: as §4

windgrass = assay: Test E windgrass; format: in vivo, Apera spica-venti; conditions: Postemergence, Rate 62 g/ha; 0 to 100 scale
Protocol: as §1
Plantings of these crops and weed species were adjusted to produce plants of appropriate size for the postemergence test. All plant species were grown using normal greenhouse practices. […]
Treated plants and untreated controls were maintained in a greenhouse for approximately 21 to 28 days, after which all treated plants were compared to untreated controls and visually evaluated. […]

Russian thistle [1] = assay: Test E Russian thistle; format: in vivo, Salsola kali; conditions: Postemergence
How it was run: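 For postemergence, sowings are timed so plants reach the 1- to 4-leaf stage at spraying. Test compound is applied in a surfactant-containing solvent mixture that is non-phytotoxic. Response is judged by eye against untreated controls after approximately 21 to 28 days.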

cotton = assay: Test C postemergence cotton; format: in vivo, Gossypium hirsutum; conditions: 0 to 100 scale, 0 no effect, 100 complete control
Protocol: as §5, §6, §7

spring barley = assay: Test E spring barley; format: in vivo, Hordeum vulgare; conditions: Postemergence
Protocol: as §1, §2, §3

blackgrass = assay: Test E blackgrass; format: in vivo, Alopecurus myosuroides; conditions: Postemergence
Protocol: as §1, §2, §3

johnsongrass = assay: Test C postemergence johnsongrass; format: in vivo, Sorghum halepense; conditions: 0 to 100 scale, 0 no effect, 100 complete control
Protocol: as §5, §6, §7

purple nutsedge = assay: Test C postemergence purple nutsedge; format: in vivo, Cyperus rotundus; conditions: 0 to 100 scale, 0 no effect, 100 complete control
Protocol: as §5, §6, §7

Italian ryegrass = assay: Test E Italian ryegrass; format: in vivo, Lolium multiflorum; conditions: Postemergence
Protocol: as §1, §2, §3

ivyleaf morningglory = assay: Test C postemergence ivyleaf morningglory; format: in vivo, Ipomoea hederacea; conditions: 0 to 100 scale, 0 no effect, 100 complete control
How it was run: as §4

Russian thistle [2] = assay: Test E Russian thistle; format: in vivo, Salsola kali; conditions: Preemergence
[3] = Rate 62 g/ha, 0 to 100 scale, 0 no effect, 100 complete control
[4] = Rate 125 g/ha, 0 to 100 scale (0 no effect, 100 complete control)
[5] = Rate 250 g/ha, 0 to 100 scale (0 no effect, 100 complete control)
[6] = Rate 500 g/ha, 0 to 100 scale where 0 is no effect and 100 is complete control
[7] = Rate 500 g/ha, 0 to 100 scale, 0 no effect, 100 complete control

## CCn1c(=O)on(C(=O)N(c2ccc(F)cc2)C(C)C)c1=O [Compound 107]
Downy brome; [3]
  Plant response rating, Downy brome: 50
Downy brome; [4]
  Plant response rating, Downy brome: 60
Downy brome; Rate 250 g/ha, 0 to 100 scale
  Plant response rating, Downy brome: 75
Annual bluegrass; Rate 62 g/ha, 0 to 100 scale
  Plant response rating, Annual bluegras: 20
Annual bluegrass; Rate 125 g/ha, 0 to 100 scale
  Plant response rating, Annual bluegras: 5
Annual bluegrass; [5]
  Plant response rating, Annual bluegras: 50
Giant foxtail; Rate 280 g/ha
  Plant response rating, Giant foxtail: 70
Giant foxtail; Rate 560 g/ha
  Plant response rating, Giant foxtail: 95
Giant foxtail; Rate 1120 g/ha
  Plant response rating, Giant foxtail: 95
Surinam grass; Rate 140 g/ha
  Plant response rating, Surinam grass: 10
Surinam grass; Rate 280 g/ha
  Plant response rating, Surinam grass: 70
Surinam grass; Rate 560 g/ha
  Plant response rating, Surinam grass: 80
Surinam grass; Rate 1120 g/ha
  Plant response rating, Surinam grass: 95
Ivyleaf speedwell; Rate 62 g/ha, 0 to 100 scale
  Plant response rating, Veronica hedera: 10
Ivyleaf speedwell; Rate 125 g/ha, 0 to 100 scale
  Plant response rating, Veronica hedera: 0
Ivyleaf speedwell; [5]
  Plant response rating, Veronica hedera: 10
Eastern black nightshade; Rate 140 g/ha
  Plant response rating E. blacknightsh: 50
Eastern black nightshade; Rate 280 g/ha
  Plant response rating E. blacknightsh: 50
Eastern black nightshade; Rate 560 g/ha
  Plant response rating E. blacknightsh: 70
Eastern black nightshade; Rate 1120 g/ha
  Plant response rating E. blacknightsh: 95
windgrass
  Plant response rating, Windgrass: 85
Russian thistle [1]; Rate 62 g/ha, 0 to 100 scale
  Plant response rating, Russian thistle: 0
Russian thistle [1]; Rate 125 g/ha, 0 to 100 scale
  Plant response rating, Russian thistle: 0
Russian thistle [1]; [5]
  Plant response rating, Russian thistle: 0
cotton; Rate 140 g/ha
  Plant response rating Cotton: 45
cotton; Rate 280 g/ha
  Plant response rating Cotton: 60
cotton; Rate 560 g/ha
  Plant response rating Cotton: 80
cotton; Rate 1120 g/ha
  Plant response rating Cotton: 90
Spring barley; Rate 62 g/ha, 0 to 100 scale
  Plant response rating, Spring Barley: 20
Spring barley; Rate 125 g/ha, 0 to 100 scale
  Plant response rating, Spring Barley: 0
Spring barley; [5]
  Plant response rating, Spring Barley: 30
blackgrass; Rate 62 g/ha, 0 to 100 scale
  Plant response rating, Blackgrass: 5
blackgrass; Rate 125 g/ha, 0 to 100 scale
  Plant response rating, Blackgrass: 80
blackgrass; [5]
  Plant response rating, Blackgrass: 85
johnsongrass; Rate 140 g/ha
  Plant response rating Johnsongrass: 35
johnsongrass; Rate 280 g/ha
  Plant response rating Johnsongrass: 50
johnsongrass; Rate 560 g/ha
  Plant response rating Johnsongrass: 90
johnsongrass; Rate 1120 g/ha
  Plant response rating Johnsongrass: 90
Purple nutsedge; Rate 140 g/ha
  Plant response rating, Purple nutsedge: 0
Purple nutsedge; Rate 280 g/ha
  Plant response rating, Purple nutsedge: 0
Purple nutsedge; Rate 560 g/ha
  Plant response rating, Purple nutsedge: 10
Purple nutsedge; Rate 1120 g/ha
  Plant response rating, Purple nutsedge: 10
Italian ryegrass; Rate 62 g/ha, 0 to 100 scale
  Plant response rating, I. Ryegrass: 0
Italian ryegrass; Rate 125 g/ha, 0 to 100 scale
  Plant response rating, I. Ryegrass: 50
Italian ryegrass; [5]
  Plant response rating, I. Ryegrass: 30
Ivyleaf morningglory; Rate 140 g/ha
  Plant response rating I. morningglory: 10
Ivyleaf morningglory; Rate 280 g/ha
  Plant response rating I. morningglory: 30
Ivyleaf morningglory; Rate 560 g/ha
  Plant response rating I. morningglory: 30
Ivyleaf morningglory; Rate 1120 g/ha
  Plant response rating I. morningglory: 95
Russian thistle [2]; [3]
  Plant response rating, Russian thistle: 0
Russian thistle [2]; [4]
  Plant response rating, Russian thistle: 0
Russian thistle [2]; Rate 250 g/ha, 0 to 100 scale
  Plant response rating, Russian thistle: 10

## CCn1c(=O)on(C(=O)N(c2ccc(F)cc2F)C(C)C)c1=O [Compound 116]
Downy brome; [4]
  Plant response rating, Downy brome: 60
Downy brome; Rate 250 g/ha, 0 to 100 scale
  Plant response rating, Downy brome: 50
Downy brome; [6]
  Plant response rating, Downy brome: 70
Annual bluegrass; Rate 62 g/ha, 0 to 100 scale
  Plant response rating, Annual bluegras: 100
Annual bluegrass; Rate 125 g/ha, 0 to 100 scale
  Plant response rating, Annual bluegras: 50
Annual bluegrass; [5]
  Plant response rating, Annual bluegras: 70
Annual bluegrass; [7]
  Plant response rating, Annual bluegras: 75
Giant foxtail; Rate 280 g/ha
  Plant response rating, Giant foxtail: 60
Giant foxtail; Rate 560 g/ha
  Plant response rating, Giant foxtail: 60
Giant foxtail; Rate 1120 g/ha
  Plant response rating, Giant foxtail: 85
Surinam grass; Rate 140 g/ha
  Plant response rating, Surinam grass: 0
Surinam grass; Rate 280 g/ha
  Plant response rating, Surinam grass: 0
Surinam grass; Rate 1120 g/ha
  Plant response rating, Surinam grass: 90
Ivyleaf speedwell; Rate 125 g/ha, 0 to 100 scale
  Plant response rating, Veronica hedera: 0
Ivyleaf speedwell; [5]
  Plant response rating, Veronica hedera: 0
Ivyleaf speedwell; [7]
  Plant response rating, Veronica hedera: 70
Eastern black nightshade; Rate 140 g/ha
  Plant response rating E. blacknightsh: 0
Eastern black nightshade; Rate 280 g/ha
  Plant response rating E. blacknightsh: 0
Eastern black nightshade; Rate 560 g/ha
  Plant response rating E. blacknightsh: 10
Eastern black nightshade; Rate 1120 g/ha
  Plant response rating E. blacknightsh: 50
windgrass
  Plant response rating, Windgrass: 70
Russian thistle [1]; Rate 62 g/ha, 0 to 100 scale
  Plant response rating, Russian thistle: 40
Russian thistle [1]; Rate 125 g/ha, 0 to 100 scale
  Plant response rating, Russian thistle: 0
Russian thistle [1]; [5]
  Plant response rating, Russian thistle: 0
Russian thistle [1]; [7]
  Plant response rating, Russian thistle: 0
cotton; Rate 140 g/ha
  Plant response rating Cotton: 10
cotton; Rate 280 g/ha
  Plant response rating Cotton: 50
cotton; Rate 560 g/ha
  Plant response rating Cotton: 50
Spring barley; Rate 62 g/ha, 0 to 100 scale
  Plant response rating, Spring Barley: 5
Spring barley; Rate 125 g/ha, 0 to 100 scale
  Plant response rating, Spring Barley: 0
Spring barley; [5]
  Plant response rating, Spring Barley: 10
Spring barley; [7]
  Plant response rating, Spring Barley: 0
blackgrass; Rate 62 g/ha, 0 to 100 scale
  Plant response rating, Blackgrass: 0
blackgrass; Rate 125 g/ha, 0 to 100 scale
  Plant response rating, Blackgrass: 40
blackgrass; [5]
  Plant response rating, Blackgrass: 80
blackgrass; [7]
  Plant response rating, Blackgrass: 80
johnsongrass; Rate 140 g/ha
  Plant response rating Johnsongrass: 10
johnsongrass; Rate 280 g/ha
  Plant response rating Johnsongrass: 40
johnsongrass; Rate 560 g/ha
  Plant response rating Johnsongrass: 60
johnsongrass; Rate 1120 g/ha
  Plant response rating Johnsongrass: 80
Purple nutsedge; Rate 140 g/ha
  Plant response rating, Purple nutsedge: 0
Purple nutsedge; Rate 280 g/ha
  Plant response rating, Purple nutsedge: 0
Purple nutsedge; Rate 560 g/ha
  Plant response rating, Purple nutsedge: 10
Purple nutsedge; Rate 1120 g/ha
  Plant response rating, Purple nutsedge: 10
Italian ryegrass; Rate 62 g/ha, 0 to 100 scale
  Plant response rating, I. Ryegrass: 0
Italian ryegrass; Rate 125 g/ha, 0 to 100 scale
  Plant response rating, I. Ryegrass: 50
Italian ryegrass; [5]
  Plant response rating, I. Ryegrass: 70
Italian ryegrass; [7]
  Plant response rating, I. Ryegrass: 0
Ivyleaf morningglory; Rate 140 g/ha
  Plant response rating I. morningglory: 0
Ivyleaf morningglory; Rate 280 g/ha
  Plant response rating I. morningglory: 0
Ivyleaf morningglory; Rate 560 g/ha
  Plant response rating I. morningglory: 0
Ivyleaf morningglory; Rate 1120 g/ha
  Plant response rating I. morningglory: 20
Russian thistle [2]; [4]
  Plant response rating, Russian thistle: 0
Russian thistle [2]; Rate 250 g/ha, 0 to 100 scale
  Plant response rating, Russian thistle: 0
Russian thistle [2]; [6]
  Plant response rating, Russian thistle: 50
